Assay [1] addresses human GABAA α2β2γ1 receptor (Homo sapiens (Human), UniProt P47869+Q8N1C3). Briefly: Radioligand binding assay, competition for [3H]RO7239181, γ1-containing GABAA subtypes. Conditions: for LogSel: Log of the γ2/γ1 Ki ratio. The protocol: The affinity of compounds at GABAA γ1 subunit-containing receptors was measured by competition for [^3H]RO7239181 (67.3 Ci/mmol; Roche) binding to membranes from HEK293F cells (ThermoFisher R79007) expressing human (transiently transfected) receptors of composition α5β2γ1, α2β2γ1, α1β2γ1.
(§1) Harvested pellets from HEK293F cells expressing the different GABAA receptor subtypes were resuspended in Mannitol Buffer pH 7.2-7.4 (Mannitol 0.29 M, Triethylamine 10 mM, Acetic acid 10 mM, EDTA 1 mM plus protease inhibitors (20 tablets Complete, Roche Diagnostics Cat. No. 05 056 489 001 per liter)), washed two times and then resuspended at 1:10 to 1:15 dilution in the same buffer. Cell disruption was performed by stirring the suspension in a Parr vessel #4637 at 435 psi for 15 minutes, and then the suspensions were centrifuged at 1000×g for 15 minutes at 4° C. (Beckman Avanti J-HC: rotor JS-4.2). The supernatant (S1) was transferred in a 21 Schott flask and the pellet (P1) was resuspended with Mannitol Buffer up to 175 ml. The resuspended pellet was transferred into a 250 ml Corning centrifugal beaker and centrifuged at 1500×g for 10 minutes at 4° C. (Beckman Avanti J-HC: rotor JS-4.2). The supernatant (S1) was then transferred in the 21 Schott flask and the pellet was discarded. The supernatants (S1) were centrifuged in 500 ml Beckman polypropylene centrifugal beaker at 15′000×g for 30 minutes at 4° C. (Beckman Avanti J-20 XP; rotor JLA-10.500). The pellet (P2) was resuspended with Mannitol Buffer 1:1 and frozen at −80° C. The supernatant (S2) was centrifuged in 100 ml Beckman polypropylene centrifugal tubes at 48000×g for 50 minutes at 4° C. (Beckman Avanti J-20 XP; rotor JA-18). The supernatant (S3) was discarded and the pellet (P3) was resuspended with 1:1 Mannitol Buffer. The P2 and P3 protein concentration was determined with the BIORAD Standard assay method with bovine serum albumin as standard and measured on the NANO-Drop 1000. The membrane suspension was aliquots (500 μl per tube) and stored at −80° C. until required.
(§2) Membrane homogenates were resuspended and polytronised (Polytron PT1200E Kinematica AG) in Potassium Phosphate 10 mM, KCl 100 mM binding buffer at pH 7.4 to a final assay concentration determined with a previous experiment.
(§3) Assays were incubated to equilibrium for 1 hour at 4° C. and then, membranes were filtered onto unifilter (96-well white microplate with bonded GF/C filters preincubated 20-50 minutes in 0.3% Polyethylenimine) with a Filtermate 196 harvester (Packard BioScience) and washed 4 times with cold Potassium Phosphate 10 mM pH 7.4, KCl 100 mM binding buffer. After anhydrousing, filter-retained radioactivity was detected by liquid scintillation counting. Ki values were calculated using Excel-Fit (Microsoft) and are the means of two determinations.

The target of assay [2] is human GABAA α1β3γ2 receptor (Homo sapiens (Human), UniProt P14867+P18507). Briefly: Radioligand binding assay, competition for [3H]Flumazenil, γ2-containing GABAA subtypes. The protocol:
The affinity of compounds at GABAA γ2 subunit-containing receptors was measured by competition for [^3H]Flumazenil (81.1 Ci/mmol; Roche) binding to HEK293F cells expressing human (transiently transfected) receptors of composition α1β3γ2.
Harvested pellets from HEK293F cells expressing the different GABAA γ2 receptor subtypes were resuspended in Mannitol Buffer pH 7.2-7.4 and processed as described above for the cells expressing the GABAA γ1 subunit-containing receptors.
Assays were incubated to equilibrium for 1 hour at 4° C. and harvested onto GF/C uni-filters (Packard) by filtration using a Packard harvester and washing with ice-cold wash buffer (50 mM Tris; pH 7.5). After anhydrousing, filter-retained radioactivity was detected by liquid scintillation counting. Ki values were calculated using Excel-Fit (Microsoft) and are the means of two determinations.

The target in assay [3] is h-GABA-A α2β2γ1 (Homo sapiens (Human), UniProt P47869+Q8N1C3). The experiment in a line: Two-electrode voltage clamp electrophysiology in Xenopus oocytes expressing GABAA receptors. The following applies: α2β2γ1 GABAA receptor subtype expressing oocytes; reference PAMs. The format is cell-based. The protocol: Xenopus laevis oocytes at maturation stages V-VI were used for the expression of cloned mRNA encoding GABAA receptor subunits. Oocytes ready for RNA micro-injection were bought from Ecocyte, Castrop-Rauxel, Germany and stored in modified Barth's medium (composition in mM: NaCl 88, KCl 1, NaHCO3 2.4, HEPES 10, MgSO4 0.82, CaNO3 0.33, CaCl2 0.33, pH=7.5) at 20° C. until the experiment.
Oocytes were plated in 96-well plates for microinjection using the Roboinject automated instrument (MultiChannelSystems, Reutlingen, Germany). Approximately 50 nL of an aqueous solution containing the RNA transcripts for the subunits of the desired GABAA receptor subtype was injected into each oocyte. […] Oocytes were kept in modified Barth's medium (composition in mM: NaCl 88, KCl 1, NaHCO3 […], HEPES 10, MgSO4 0.82, CaNO3 0.33, CaCl2 0.33, pH=7.5) at 20° C. until the experiment.
Electrophysiological experiments were performed using the Roboocyte instrument (MultiChannelSystems, Reutlingen, Germany) on days 3 to 5 after the micro-injection of mRNA. During the experiment the oocytes were constantly superfused by a solution containing (in mM) NaCl 90, KCl 1, HEPES 5, MgCl2 1, CaCl2 1 (pH 7.4). Oocytes were impaled by two glass microelectrodes (resistance: […]) which were filled with a solution containing KCl 1M+K-acetate 1.5 M and voltage-clamped to −80 mV. The recordings were performed at room temperature using the Roboocyte two-electrode voltage clamp system (Multichannelsystem). After an initial equilibration period of 1.5 min GABA was added for 1.5 min at a concentration evoking approximately 20% of a maximal current response (EC20). After another rest interval of 2.5 min GABA was again added evoking a response of similar amplitude and shape. […] Current traces were recorded at a digitization rate of 10 Hz during and shortly before and after the GABA application.
Each compound and concentration was tested on at least 3 oocytes. Different oocytes were used for different compound concentrations.
For the analysis, the digitized current traces of the first and second GABA response were superimposed and, if necessary, rescaled to equal maximal amplitudes. The ratio between the two responses during the time interval of test compound application was calculated point by point. The extremum of the resulting “ratio trace” was taken as the efficacy (“Fold increase”) of the compound expressed as “% modulation of GABA EC20” (100*(Fold increase−1)).

The target of assay [4] is human GABAA α5β2γ1 receptor (Homo sapiens (Human), UniProt P31644+Q8N1C3). The experiment in a line: Radioligand binding assay, competition for [3H]RO7239181, γ1-containing GABAA subtypes. Conditions: Table 1; [3H]RO7239181 displacement, membranes from HEK293F cells, mean of two determinations. The protocol: The affinity of compounds at GABAA γ1 subunit-containing receptors was measured by competition for [^3H]RO7239181 (67.3 Ci/mmol; Roche) binding to membranes from HEK293F cells (ThermoFisher R79007) expressing human (transiently transfected) receptors of composition α5β2γ1, α2β2γ1, α1β2γ1. For better protein expression of the α2 subunit-containing receptors, the 28 amino acid long signal peptide (Met1 to Ala28) of the human GABAA α2 subunit was substituted by the 31 amino acid long signal peptide (Met1 to Ser31) of human GABAA α5 subunit.
as §1, §2
as §3, with “Radioligand binding assays were carried out in a volume of 200 μL (96-well plates) which contained 100 μL of cell membranes, [3H]RO7239181 at a concentration of 1.5 nM (α5β2γ1) or 20-30 nM (α1β2γ1, α2β2γ1) and the test compound in the range of [0.3-10000]=10^−9 M. Nonspecific binding was defined by 10×10^−6 (α5β2γ1) and 30×10^−6 M RO7239181 and typically represented less than 5% (α5β2γ1) and less than 20% (β1β2γ1, α2β2γ1) of the total binding. Assays” for “Assays”
Representative test results, obtained by the above described assay measuring binding affinity to HEK293 cells expressing human (h) receptors, are shown in the Table 1.

[5] abbreviates: Ki h-GABAA α2β2γ1, Table 1, [3H]RO7239181 displacement, membranes from HEK293F cells, mean of two determinations.
The mark [6] stands for this setting: Table 1, Ki α1β3γ2 (nM)/Ki α2β2γ1 (nM).
The mark [7] stands for this setting: Table 1, [3H]Flumazenil displacement, HEK293F cells, mean of two determinations, read-out: Ki h-GABAA α1β3γ2.

Like-named read-outs stand apart in the source and are kept apart here.

As for `CN1C(=O)CN=C(c2ccccc2F)c2ccncc21` [RE-A, reference compound], the inhibitory constant (Ki) in assay [1] (Ki h-GABAA α2β2γ1, Table 3, reference compounds comparison) came out at 10200 nM; in assay [2] it was 179 nM. Moreover, the “γ2/γ1 Selectivity Ratio” value in assay [1] (Table 3, Ki α1β3γ2/Ki α2β2γ1) is listed as 0.018.
As for `Cc1ncc2n1-c1ccc(Cl)cc1C(c1ccccc1F)=NC2` [Midazolam, reference compound], the “potentiation of the GABA-induced current” value in assay [3] is roughly 60%.
On to `Cc1cn2c(n1)[C@H](C)N=C(c1c(F)cccc1F)c1c-2cnc(C(F)(F)F)c1Cl` [Example 18, (7S)-11-chloro-9-(2,6-difluorophenyl)-4,7-dimethyl-12-(trifluoromethyl)-2,5,8,13-tetrazatricyclo[8.4.0.02,6]tetradeca-1(10),3,5,8,11,13-hexaene], for which the Ki came to 5.9 nM in assay [4], 131 nM in assay [1], 54.5 nM in assay [1] (setting [5]) and 4170 nM in assay [2] (setting [7]). Further, the “γ2/γ1 Selectivity Ratio” value in assay [1] (setting [6]) was 77. Also, the LogSel in assay [1] (Table 1) turned out to be 1.88.
On to `C[C@@H]1N=C(c2c(F)cccc2F)c2c(cnc(C(F)(F)F)c2Cl)-n2nc(C(=O)N[C@H]3C[C@@H](O)C3)nc21` [Example 23, (7S)-11-chloro-9-(2,6-difluorophenyl)-N-cis-(3-hydroxycyclobutyl)-7-methyl-12-(trifluoromethyl)-2,3,5,8,13-pentazatricyclo[8.4.0.02,6]tetradeca-1(10),3,5,8,11,13-hexaene-4-carboxamide], for which the Ki is 9.7 nM in assay [4]; 101 nM in assay [1] (Table 1, [3H]RO7239181 displacement, membranes from HEK293F cells, mean of two determinations, read-out: Ki h-GABAA α2β2γ1); 101 nM in assay [1] (Table 2, [3H]RO7239181 displacement, read-out: Ki h-GABAA α2β2γ1); 14500 nM in assay [2] (setting [7]). In assay [1] (setting [6]), the “γ2/γ1 Selectivity Ratio” value was 144. In addition, in assay [1] (Table 1), the LogSel was determined as 2.16.
With `Cc1nnc2n1-c1ccc(Cl)cc1C(c1ccccc1Cl)=NC2` [Triazolam, reference compound], the “potentiation of the GABA-induced current” value in assay [3] is given as roughly 60%.
On to `C[C@@H]1N=C(c2c(F)cccc2F)c2c(cnc(C(F)(F)F)c2Cl)-n2nc(C(=O)N[C@H]3C[C@H](O)C3)nc21` [Example 24, (7S)-11-chloro-9-(2,6-difluorophenyl)-N-trans-(3-hydroxycyclobutyl)-7-methyl-12-(trifluoromethyl)-2,3,5,8,13-pentazatricyclo[8.4.0.02,6]tetradeca-1(10),3,5,8,11,13-hexaene-4-carboxamide], for which the Ki turned out to be 2.8 nM in assay [4]; 72.6 nM in assay [1] (setting [5]); 72.6 nM in assay [1] (Ki h-GABAA α2β2γ1, Table 2, [3H]RO7239181 displacement); 8380 nM in assay [2] (setting [7]). Moreover, the “γ2/γ1 Selectivity Ratio” value in assay [1] (setting [6]) is reported as 115. Also, in assay [1] (Table 1), the LogSel is listed as 2.06.

Broadly, the Ki is the dissociation constant of the complex between target and ligand, obtained from inhibition or displacement.

(Values after patent US20240270744A1 (Hoffmann-La Roche Inc., priority 2021, published 2024).)
